Data: patent US8362017B2, “C-kit modulators and methods of use” (Exelixis, Inc., priority 2003, dated 2013)

molecular target: c-Kit kinase (Homo sapiens, UniProt P10721); test: c-Kit biochemical activity assay (AlphaScreen); settings: biotinylated poly(Glu, Tyr) substrate, 1 hr at ambient temperature
Description: Kinase activity and compound inhibition are investigated using one or more of the three assay formats described below. The ATP concentrations for each assay are selected to be close to the Michaelis-Menten constant (KM) for each individual kinase. Dose-response experiments are performed at 10 different inhibitor concentrations in a 384-well plate format. The data are fitted to four-parameter equation (2) below; where Y is the observed signal, X is the inhibitor concentration, Min is the background signal in the absence of enzyme (0% enzyme activity), Max is the signal in the absence of inhibitor (100% enzyme activity), IC50 is the inhibitor concentration at 50% enzyme inhibition and H represents the empirical Hill's slope to measure the cooperativity. Typically H is close to unity. Y=Min+(Max−Min)/(1+(X/IC50)^H) Equation (2) c-Kit Assay
c-Kit biochemical activity was assessed using AlphaScreen™ (Perldn Elmer) technology, described above. Test compounds, ATP, biotinylated poly(Glu, Tyr) and c-Kit kinase were combined in a volume of 20 μL in a 384-well white, medium binding microtiter plate (Greiner). Reaction mixtures were incubated for 1 hr at ambient temperature. Reactions were quenched by addition of 10 μL of 15-30 mg/mL AlphaScreen bead suspension containing 75 mM Hepes, pH 7.4, 300 mM NaCl, 120 mM EDTA, 0.3% BSA and 0.03% Tween-20. After 16 hr incubation at ambient temperature plates were read using an AlphaQuest reader (Perkin Elmer).

Sequence of c-Kit kinase (P10721 26-976): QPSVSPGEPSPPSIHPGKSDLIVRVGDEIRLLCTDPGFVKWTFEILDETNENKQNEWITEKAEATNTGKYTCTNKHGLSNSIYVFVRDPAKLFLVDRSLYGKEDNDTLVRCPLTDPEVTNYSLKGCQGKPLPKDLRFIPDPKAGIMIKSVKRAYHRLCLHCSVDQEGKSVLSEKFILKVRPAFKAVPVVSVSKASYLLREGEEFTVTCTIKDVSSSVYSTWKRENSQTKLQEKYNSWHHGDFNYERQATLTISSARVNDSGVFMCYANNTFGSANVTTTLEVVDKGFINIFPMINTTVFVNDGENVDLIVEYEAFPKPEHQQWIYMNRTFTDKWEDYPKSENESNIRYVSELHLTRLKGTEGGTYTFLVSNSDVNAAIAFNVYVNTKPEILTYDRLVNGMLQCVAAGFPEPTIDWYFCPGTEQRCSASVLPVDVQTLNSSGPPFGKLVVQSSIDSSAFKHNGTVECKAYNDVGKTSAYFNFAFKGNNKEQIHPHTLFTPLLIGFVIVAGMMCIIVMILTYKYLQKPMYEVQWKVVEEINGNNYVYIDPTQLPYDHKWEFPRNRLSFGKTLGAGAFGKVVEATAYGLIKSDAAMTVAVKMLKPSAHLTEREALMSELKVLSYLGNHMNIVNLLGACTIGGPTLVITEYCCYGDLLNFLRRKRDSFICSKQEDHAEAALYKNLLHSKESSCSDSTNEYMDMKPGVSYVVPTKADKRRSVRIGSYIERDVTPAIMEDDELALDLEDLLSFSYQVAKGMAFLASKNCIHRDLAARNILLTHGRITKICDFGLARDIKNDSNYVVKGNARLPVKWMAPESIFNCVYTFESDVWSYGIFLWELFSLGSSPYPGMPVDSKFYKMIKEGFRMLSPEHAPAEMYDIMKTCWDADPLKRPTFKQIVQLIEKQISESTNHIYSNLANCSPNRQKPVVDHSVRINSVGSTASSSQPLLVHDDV

| SMILES | IC50 [nM] |
| --- | --- |
| Cc1nnnn1-c1cccc(OCC(=O)Nc2ccc(Cl)c(C(F)(F)F)c2)c1 [Example 5, N-[4-chloro-3-(trifluoromethyl)phenyl]-2-{[3-(5-methyl-1H-tetrazol-1-yl)phenyl]oxy}acetamide] | 500 to 5000 |
| O=C(COc1ccc(-c2cncnc2)cc1)Nc1ccc(Cl)c(C(F)(F)F)c1 [Example 7, N-[4-chloro-3-(trifluoromethyl)phenyl]-2-[(4-pyrimidin-5-ylphenyl)oxy]acetamide] | 50 to 500 |
| O=C(NCc1cccc(-c2ccc3nccnc3c2)c1)Nc1ccc(Cl)c(C(F)(F)F)c1 [Example 11, 1-(4-Chloro-3-trifluoromethyl-phenyl)-3-(3-quinoxalin-6-yl-benzyl)urea] | 50 to 500 |
| O=C(NC(=O)c1cccc(-n2cnnn2)c1)Nc1ccc(Cl)c(C(F)(F)F)c1 [Example 13, 1-(4-chloro-3-trifluoromethyl-phenyl)-3-(3-tetrazol-1-yl-benzoyl)-urea] | 500 to 5000 |
| Cc1ccc(-n2cnnn2)cc1OCC(=O)Nc1ccc(Cl)c(C(F)(F)F)c1 [Example 18, N-[4-chloro-3-(trifluoromethyl)phenyl]-2-{[2-methyl-5-(1H-tetrazol-1-yl)phenyl]oxy}acetamide] | > 5000 |
| COC(=O)c1cn(-c2cccc(OCC(=O)Nc3ccc(Cl)c(C(F)(F)F)c3)c2)nn1 [Example 29, methyl 1-{3-[(2-{[4-chloro-3-(trifluoromethyl)phenyl]amino}-2-oxoethyl)oxy]phenyl}-1H-1,2,3-triazole-4-carboxylate] | 500 to 5000 |
| COc1ccc(Cl)cc1NC(=O)OCc1cccc(-c2cccnc2)c1 [Example 234, (3-pyridin-3-ylphenyl)methyl [5-chloro-2-(methyloxy)phenyl]carbamate] | 500 to 5000 |
| O=C(Nc1ccc(Cl)c(C(F)(F)F)c1)OCc1ccc(-n2cnnn2)cc1 [Example 235, [4-(1H-tetrazol-1-yl)phenyl]methyl [4-chloro-3-(trifluoromethyl)phenyl]carbamate] | 500 to 5000 |
| COc1ccc(Cl)cc1NC(=O)OCc1cccc(-c2cncnc2)c1 [Example 236, (3-pyrimidin-5-ylphenyl)methyl [5-chloro-2-(methyloxy)phenyl]carbamate] | 500 to 5000 |
| Cc1ccc(NC(=O)OCc2ccc(-c3cncnc3)cc2)cc1C [Example 237, (4-pyrimidin-5-ylphenyl)methyl (3,4-dimethylphenyl)carbamate] | 500 to 5000 |
| Cc1ccc(NC(=O)OCc2cccc(-c3cccnc3)c2)cc1C [Example 238, (3-pyridin-3-ylphenyl)methyl (3,4-dimethylphenyl)carbamate] | 50 to 500 |
| CC(C)(C)OC(=O)N1CCCC(NC(=O)c2nc(-c3cccc(CNC(=O)Nc4ccc(Cl)c(C(F)(F)F)c4)c3)cnc2N)C1 (stereo not drawn) [Example 239, 1,1-dimethylethyl 3-({[3-amino-6-(3-{[({[4-chloro-3-(trifluoromethyl)phenyl]amino}carbonyl)amino]methyl}phenyl)pyrazin-2-yl]carbonyl}amino)piperidine-1-carboxylate] | 500 to 5000 |
| CC(C)(C)OC(=O)N1CCCC(NC(=O)c2nc(-c3ccc(CNC(=O)Nc4ccc(Cl)c(C(F)(F)F)c4)cc3)cnc2N)C1 (stereo not drawn) [Example 240, 1,1-dimethylethyl 3-({[3-amino-6-(4-{[({[4-chloro-3-(trifluoromethyl)phenyl]amino}carbonyl)amino]methyl}phenyl)pyrazin-2-yl]carbonyl}amino)piperidine-1-carboxylate] | 500 to 5000 |
| Nc1ncc(-c2cccc(CNC(=O)Nc3ccc(Cl)c(C(F)(F)F)c3)c2)nc1C(=O)NC1CCCNC1 (stereo not drawn) [Example 241, 3-amino-6-(3-{[({[4-chloro-3-(trifluoromethyl)phenyl]amino}carbonyl)amino]methyl}phenyl)-N-piperidin-3-ylpyrazine-2-carboxamide] | 50 to 500 |
| Nc1ncc(-c2ccc(CNC(=O)Nc3ccc(Cl)c(C(F)(F)F)c3)cc2)nc1C(=O)NC1CCCNC1 (stereo not drawn) [Example 242, 3-amino-6-(4-{[({[4-chloro-3-(trifluoromethyl)phenyl]amino}carbonyl)amino]methyl}phenyl)-N-piperidin-3-ylpyrazine-2-carboxamide] | 50 to 500 |
| CC(C)(C)OC(=O)N1CCN(C(=O)c2nc(-c3cccc(CNC(=O)Nc4ccc(Cl)c(C(F)(F)F)c4)c3)cnc2N)CC1 [Example 243, 1,1-dimethylethyl 4-{[3-amino-6-(3-{[({[4-chloro-3-(trifluoromethyl)phenyl]amino}carbonyl)amino]methyl}phenyl)pyrazin-2-yl]carbonyl}piperazine-1-carboxylate] | 500 to 5000 |
| CC(C)(C)OC(=O)N1CCN(C(=O)c2nc(-c3ccc(CNC(=O)Nc4ccc(Cl)c(C(F)(F)F)c4)cc3)cnc2N)CC1 [Example 244, 1,1-dimethylethyl 4-{[3-amino-6-(4-{[({[4-chloro-3-(trifluoromethyl)phenyl]amino}carbonyl)amino]methyl}phenyl)pyrazin-2-yl]carbonyl}piperazine-1-carboxylate] | 500 to 5000 |

| SMILES | IC50 [nM] |
| --- | --- |
| Nc1ncc(-c2cccc(CNC(=O)Nc3ccc(Cl)c(C(F)(F)F)c3)c2)nc1C(=O)N1CCNCC1 [Example 245, N-({3-[5-amino-6-(piperazin-1-ylcarbonyl)pyrazin-2-yl]phenyl}methyl)-N′-[4-chloro-3-(trifluoromethyl)phenyl]urea] | 500 to 5000 |
| Nc1ncc(-c2ccc(CNC(=O)Nc3ccc(Cl)c(C(F)(F)F)c3)cc2)nc1C(=O)N1CCNCC1 [Example 246, N-({4-[5-amino-6-(piperazin-1-ylcarbonyl)pyrazin-2-yl]phenyl}methyl)-N′-[4-chloro-3-(trifluoromethyl)phenyl]urea] | 500 to 5000 |
| O=C(NCc1cccc(-c2cn[nH]c2)c1)Nc1ccc(Cl)c(C(F)(F)F)c1 [Example 247, N-[4-chloro-3-(trifluoromethyl)phenyl]-N′-{[3-(1H-pyrazol-4-yl)phenyl]methyl}urea] | 50 to 500 |
| O=C(NCc1ccc(-c2cn[nH]c2)cc1)Nc1ccc(Cl)c(C(F)(F)F)c1 [Example 248, N-[4-chloro-3-(trifluoromethyl)phenyl]-N′-{[4-(1H-pyrazol-4-yl)phenyl]methyl}urea] | 500 to 5000 |
| O=C(Nc1ccc(Cl)c(C(F)(F)F)c1)OCc1cccc(-c2cnc(N3CCNCC3)nc2)c1 [Example 249, [3-(2-piperazin-1-ylpyrimidin-5-yl)phenyl]methyl [4-chloro-3-(trifluoromethyl)phenyl]carbamate] | 500 to 5000 |
| O=C(Nc1ccc(Cl)c(C(F)(F)F)c1)OCc1ccc(-c2cnc(N3CCNCC3)nc2)cc1 [Example 250, [4-(2-piperazin-1-ylpyrimidin-5-yl)phenyl]methyl [4-chloro-3-(trifluoromethyl)phenyl]carbamate] | 500 to 5000 |
| O=C(NCc1cccc(-c2cccnc2Cl)c1)Nc1ccc(Cl)c(C(F)(F)F)c1 [Example 251, N-{[3-(2-chloropyridin-3-yl)phenyl]methyl}-N′-[4-chloro-3-(trifluoromethyl)phenyl]urea] | 50 to 500 |
| O=C(NCc1ccc(-c2cccnc2Cl)cc1)Nc1ccc(Cl)c(C(F)(F)F)c1 [Example 252, N-{[4-(2-chloropyridin-3-yl)phenyl]methyl}-N′-[4-chloro-3-(trifluoromethyl)phenyl]urea] | 500 to 5000 |
| O=C(NCc1cccc(-c2cccnc2F)c1)Nc1ccc(Cl)c(C(F)(F)F)c1 [Example 253, N-[4-chloro-3-(trifluoromethyl)phenyl]-N′-{[3-(2-fluoropyridin-3-yl)phenyl]methyl}urea] | 500 to 5000 |
| O=C(NCc1ccc(-c2cccnc2F)cc1)Nc1ccc(Cl)c(C(F)(F)F)c1 [Example 254, N-[4-chloro-3-(trifluoromethyl)phenyl]-N′-{[4-(2-fluoropyridin-3-yl)phenyl]methyl}urea] | 500 to 5000 |
| O=C(Nc1cccc(C(F)(F)F)c1)OCc1cccc(-n2cnnn2)c1 [Example 255, [3-(1H-tetrazol-1-yl)phenyl]methyl [3-(trifluoromethyl)phenyl]carbamate] | 50 to 500 |
| O=C(Nc1cccc(C(F)(F)F)n1)OCc1cccc(-n2cnnn2)c1 [Example 256, [3-(1H-tetrazol-1-yl)phenyl]methyl [6-(trifluoromethyl)pyridin-2-yl]carbamate] | 500 to 5000 |
| O=C(Nc1cc(C(F)(F)F)ccn1)OCc1cccc(-n2cnnn2)c1 [Example 257, [3-(1H-tetrazol-1-yl)phenyl]methyl [4-(trifluoromethyl)pyridin-2-yl]carbamate] | 50 to 500 |
| CSc1ccc(-c2cccc(CNC(=O)Nc3ccc(Cl)c(C(F)(F)F)c3)c2)nc1 [Example 258, N-[4-chloro-3-(trifluoromethyl)phenyl]-N′-({3-[5-(methylthio)pyridin-2-yl]phenyl}methyl)urea] | 500 to 5000 |
| Cc1ccc(-c2cccc(COC(=O)Nc3ccc(Cl)c(C(F)(F)F)c3)c2)c(C)n1 [Example 259, [3-(2,6-dimethylpyridin-3-yl)phenyl]methyl [4-chloro-3-(trifluoromethyl)phenyl]carbamate] | 500 to 5000 |
| COc1cncc(-c2cccc(COC(=O)Nc3ccc(Cl)c(C(F)(F)F)c3)c2)c1 [Example 260, {3-[5-(methyloxy)pyridin-3-yl]phenyl}methyl [4-chloro-3-(trifluoromethyl)phenyl]carbamate] | 50 to 500 |
